A short description of data set [1]: Metabolic stability in human liver microsomes (HLM). Particulars: both sexes, pooled human liver microsomes, pH 7.4, NADPH. The format is in vitro ADME. As for the experimental part: HLM Stability. Pooled HLM from adult male and female donors (Corning 452117) were used. Microsomal incubations were carried out in multi-well plates. […] Control incubations were performed by replacing the NADPH-cofactor system with PBS. Test compounds (1 μM, final solvent concentration 1.0%) were incubated with microsomes at 37° C. with constant shaking. Six time points over 60 minutes were analyzed, with 60 μL aliquots of the reaction mixture being drawn at each time point.
(Liver microsomes are vesicles of endoplasmic reticulum, rich in cytochrome P450 enzymes.)

Data set [2] in a line: Metabolic stability in mouse liver microsomes (MLM). The format is in vitro ADME, CD-1 mice. Particulars: CD-1, mouse, pooled mouse liver microsomes, pH 7.4, NADPH. As for the experimental part:
MLM Stability. Pooled MLM from CD-1 mice (BIOIVT M00501) were used. Microsomal incubations were carried out in multi-well plates. […] Control incubations were performed by replacing the NADPH-cofactor system with PBS. Test compounds (1 μM, final solvent concentration 1.0%) were incubated with microsomes at 37° C. with constant shaking. Six time points over 60 minutes were analyzed, with 60 μL aliquots of the reaction mixture being drawn at each time point.

The nature of data set [3]: Metabolic stability in rat liver microsomes (RLM). The format is in vitro ADME. As to conditions: both sexes, pooled rat liver microsomes, pH 7.4, NADPH. As to the method:
RLM Stability. Pooled RLM from adult male and female donors (Xenotech R1000) were used. Microsomal incubations were carried out in multi-well plates. […] Control incubations were performed by replacing the NADPH-cofactor system with PBS. Test compounds (1 μM, final solvent concentration 1.0%) were incubated with microsomes at 37° C. with constant shaking. Six time points over 60 minutes were analyzed, with 60 μL aliquots of the reaction mixture being drawn at each time point.

In another data set the target is 5-HT1A (Homo sapiens (Human), UniProt P08908). As to the kind of experiment: FLIPR Ca2+ flux agonist assay, 5-HT1A. The format is cell-based. As to conditions: for 5-HT1A % Act @ Max Dose: Ca2+ flux, CHO cells. As to the method: A solution of 250 mM probenecid in 1 mL FLIPR assay buffer was prepared fresh. This was combined with a fluorescent dye (Fluo-4 Direct™) to make a final assay concentration of 2.5 mM. […] The fluorescent dye was then added to the assay plate along with assay buffer to a final volume of 40 μL. The cell plate was incubated for 50 min at 37° C. and 5% CO2 and placed into the FLIPR Tetra along with the compound plate. 10 μL of references and compounds were then transferred from the compound plate into the cell plate and the fluorescent signal was read.

Data set [4] in a line: Stability in rat brain homogenate. Particulars: for half-life at 1 μM: male, Sprague Dawley; for half-life at 1 μM / % Compound Remaining (after 120 min): rat brain homogenate, 37° C., 1 μM. The format is in vitro ADME, Sprague Dawley rats. As to the method:
Rat Brain Homogenate Stability. Frozen rat brain homogenate (pooled from male Sprague Dawley rats, BioreclamationIVT, RATOOBRAINMZA) was thawed in a water bath at 37° C. immediately prior to use. Positive controls and test compounds (final concentration in incubation medium=1 μM for test compounds and 2 μM for controls, all with 2% DMSO) were incubated in duplicate for each time point (0, 10, 30, 60, and 120 min) in the rat brain homogenate at a total reaction volume of 100 μL at 37° C. At the end of each incubation period, reactions were immediately quenched with 400 μL of acetonitrile containing internal standard (200 ng/ml tolbutamine and 200 ng/ml labetalol) and mixed thoroughly. Plates were then sealed, shaken for 20 min, and centrifuged at 4,000 rpm and 4° C. for 20 min. Aliquots of 50 μL of each supernatant were diluted into 100 uL of water and the mixtures were then shaken again for 10 min.

Data set [5] has as its target serotonin transporter (SERT) (Homo sapiens (Human), UniProt P31645). In words: SERT fluorescent substrate uptake inhibition in transfected HEK293 cells. Type of data set: cell-based. Particulars: HEK293 cells expressing SERT. As for the experimental part:
SERT Uptake Inhibition. The ability of test compounds to block monoamine uptake by SERT was determined using the Neurotransmitter Transporter Uptake Assay Kit manufactured by Molecular Devices (Cat #R8173). Briefly, stably transfected HEK293 cells expressing SERT were grown and plated into 384-well plates at a concentration of 20,000 cells per well. Plates were then incubated for 16-20 h at 37° C. and 5% CO2. The medium was then aspirated and replaced with 25 μL of assay buffer (20 mM HEPES in HBSS, containing 0.1% BSA) containing the test compounds at the appropriate concentrations. Plates were then centrifuged at 300 rpm for 15 s and then incubated at 37° C. for 30 minutes. At this time, 25 μL of the proprietary fluorescent dye solution was added, the plates were incubated at 37°° C. for 60 minutes, and then fluorescence was quantified on a plate reader (excitation wavelength =440 nm, emission wavelength=520 nm). The proprietary dye solution contains a mixture of 1) a fluorescent dye (dye 1) that mimics the endogenous substrate of SERT and is thereby actively transported to the intracellular compartment in the absence of an inhibitor and 2) a masking dye that inhibits the fluorescence of dye 1 in the extracellular compartment. Therefore, the overall fluorescence of the system increases as the fluorescent dye is transported into the cells.

For another data set, the target named is CYP2D6 (Homo sapiens (Human), UniProt P10635). In words: CYP inhibition in human liver microsomes, CYP2D6. Type of data set: in vitro ADME.
The next data set addresses CYP2C19 (Homo sapiens (Human), UniProt P33261). As to the kind of experiment: CYP inhibition in human liver microsomes, CYP2C19. The format is in vitro ADME. As to the method: HLM Incubations. Pooled HLM from adult male and female donors (Corning 452117) were used. Microsomal incubations were carried out in multi-well plates. Liver microsomal incubation aliquots contained 1) PBS (100 mM, pH 7.4), MgCl2 (3.3 mM), and NADPH (1 mM); 2) liver microsomal protein (0.2 mg/mL); 3) the reference CYP substrates: phenacetin for CYP1A2 (10 μM), diclofenac for CYP2C9 (5 μM), (S)-mephenytoin for CYP2C19 (30 μM), dextromethorphan for CYP2D6 (5 μM), and midazolam for CYP3A4 (2 μM); and 4) test compounds (10 μM), control inhibitors (3 μM α-naphthoflavone for CYP1A2, 3 μM sulfaphenazole for CYP2C9, 1 μM (+)-N-3-benzylnirvanol for 2C19, 3 μM quinidine for CYP2D6, or 3 μM ketoconazole for CYP3A4), or solvent (for uninhibited condition). Incubations were carried out at 37° C. with constant shaking for 10 minutes.
Sample Analysis. […] Percent inhibition by test compounds or control inhibitors was calculated by comparing the metabolite formation in the presence of the inhibitor compared to the metabolite formation in the absence of the inhibitor.

Where a name gives a salt, the structure may show the parent alone. Some results are limits rather than exact numbers.

CYP2C19, sequence (P33261 whole entry, looked up): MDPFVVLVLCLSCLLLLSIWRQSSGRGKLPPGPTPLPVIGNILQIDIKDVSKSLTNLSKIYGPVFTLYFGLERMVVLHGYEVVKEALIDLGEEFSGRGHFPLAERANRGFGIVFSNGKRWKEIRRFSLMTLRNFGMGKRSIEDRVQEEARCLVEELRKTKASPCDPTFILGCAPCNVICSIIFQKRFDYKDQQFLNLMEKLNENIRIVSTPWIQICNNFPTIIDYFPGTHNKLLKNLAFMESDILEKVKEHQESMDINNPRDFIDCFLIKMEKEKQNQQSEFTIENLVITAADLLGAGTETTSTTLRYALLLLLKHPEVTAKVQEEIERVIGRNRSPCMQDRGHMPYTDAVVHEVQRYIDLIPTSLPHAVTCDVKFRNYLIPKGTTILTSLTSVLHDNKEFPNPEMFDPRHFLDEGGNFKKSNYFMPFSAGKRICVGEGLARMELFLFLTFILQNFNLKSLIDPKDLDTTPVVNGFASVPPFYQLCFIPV
CYP2D6, sequence (P10635 whole entry, looked up): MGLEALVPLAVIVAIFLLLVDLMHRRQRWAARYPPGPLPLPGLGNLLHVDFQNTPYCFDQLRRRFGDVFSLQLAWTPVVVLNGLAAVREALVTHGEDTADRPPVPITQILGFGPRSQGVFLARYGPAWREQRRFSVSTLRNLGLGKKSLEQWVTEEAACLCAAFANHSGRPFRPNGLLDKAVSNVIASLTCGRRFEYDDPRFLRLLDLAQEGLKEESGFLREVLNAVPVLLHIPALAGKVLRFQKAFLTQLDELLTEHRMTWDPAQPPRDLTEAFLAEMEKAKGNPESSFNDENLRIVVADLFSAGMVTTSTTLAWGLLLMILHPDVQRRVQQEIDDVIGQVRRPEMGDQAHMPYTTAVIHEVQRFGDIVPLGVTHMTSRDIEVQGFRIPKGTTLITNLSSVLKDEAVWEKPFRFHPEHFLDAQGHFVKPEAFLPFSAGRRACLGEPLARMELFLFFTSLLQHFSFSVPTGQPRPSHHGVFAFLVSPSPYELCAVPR

In the case of `CN(C)CCc1c[nH]c2ccccc12` [DMT, N,N-dimethyltryptamine, reference compound], in data set [1], the half-life (usually the time in which the quantity being followed falls by half) at 1 μM turned out to be 7 min. Further, in data set [2], the half-life at 1 μM worked out at 69.1 min and the microsomal CLint (in general, the rate of metabolic loss divided by the concentration) at 1 μM was 20.1 µL/min/mg. In data set [3], this compound registered a half-life at 1 μM of 10.1 min and a microsomal CLint at 1 μM of 137 µL/min/mg. Also, the “5-HT1A % Act @ Max Dose” value at 5-HT1A is 68.1%. In data set [4], the “stability in rat brain homogenate (in words)” value (“stability” for short) was “highly unstable”, the half-life at 1 μM was 5.1 min and the “% Compound Remaining (after 120 min)” value amounted to 0.0%. Also, in data set [5], the IC50 (in general, the point on the concentration scale where inhibition reaches its midpoint) amounted to 2960 nM and the “SERT % Inhibition @ Max Dose” value is given as 67.92%.
In the case of `CN(C)CCc1c[nH]c2ccc(F)cc12` [Compound 5, 2-(5-fluoro-1H-indol-3-yl)-N,N-dimethylethan-1-amine hydrochloride], the half-life at 1 μM was determined as 4.6 min in data set [1], 27.3 min in data set [2], 9.2 min in data set [3] and 2.7 min in data set [4]. For the same compound, the results for the microsomal CLint at 1 μM in data set [1], in data set [2] and in data set [3] were 300 µL/min/mg, 50.8 µL/min/mg and 151 µL/min/mg, respectively. Further, the “stability” value in data set [4] is “highly unstable”. Further, the “% Compound Remaining (after 120 min)” value in data set [4] stood at 0.0%.
In data set [1], `CCCN(CC)CCc1c[nH]c2ccccc12` [Compound 1, ethylpropyltryptamine] displayed a half-life at 1 μM of 21.7 min and a microsomal CLint at 1 μM of 64.3 µL/min/mg. In data set [2], the half-life at 1 μM turned out to be 6 min and the microsomal CLint at 1 μM was found to be 231 µL/min/mg. In addition, in data set [3], the half-life at 1 μM was determined as 1.4 min and the microsomal CLint at 1 μM is 970 µL/min/mg. Further, on CYP2D6 (both sexes, human, pooled human liver microsomes, pH 7.4, probe dextromethorphan (5 μM), HLM, 10 μM, dextromethorphan substrate, read-out: CYP 2D6 % Inhibition at 10 μM), the inhibition (in general, the relative decrease from the control value, in per cent) at 10 min, 10 µM was 58.6%. In addition, at CYP2C19 (both sexes, human, pooled human liver microsomes, pH 7.4, probe (S)-mephenytoin (30 μM), HLM, 10 μM, (S)-mephenytoin substrate, read-out: CYP 2C19 % Inhibition at 10 μM), the inhibition at 10 min, 10 µM amounted to 2.3%. In addition, on 5-HT1A, the EC50 (usually the concentration needed to bring the measured effect to its halfway point) was 88700 nM and the “5-HT1A % Act @ Max Dose” value worked out at 75.5%. In data set [4], the “stability” value is on record as “high stability”, the half-life at 1 μM is above 289 min and the “% Compound Remaining (after 120 min)” value came out at 86.9%. In addition, in data set [5], the IC50 worked out at 750 nM and the “SERT % Inhibition @ Max Dose” value came out at 75.35%.
For the compound `CCCN(CC)CCc1c[nH]c2ccc(F)cc12` [Compound 3, N-ethyl-N-(2-(5-fluoro-1H-indol-3-yl)ethyl) propan-1-amine hydrochloride], the half-life at 1 μM in data set [1] is 13 min; in data set [2] it was 5.5 min; in data set [3] it was 3.2 min; in data set [4], above 289 min. Moreover, the values for the microsomal CLint at 1 μM in data set [1], in data set [2] and in data set [3] were 106 µL/min/mg, 250 µL/min/mg and 428 µL/min/mg, respectively. The IC50 was 1900 nM on CYP2D6 and above 50000 nM against CYP2C19. The EC50 on 5-HT1A is 19600 nM. For the same compound, at 5-HT1A, the “5-HT1A % Act @ Max Dose” value stood at 88.34%. Besides, the “stability” value in data set [4] is “high stability”. Moreover, in data set [4], the “% Compound Remaining (after 120 min)” value worked out at 103.3%.
As for `CN(C)CCc1c[nH]c2cccc(O)c12` [Psilocin, psilocin, reference compound], the half-life at 1 μM in data set [1] was determined as 110 min. Besides, in data set [2], the half-life at 1 μM turned out to be 127 min and the microsomal CLint at 1 μM was 10.9 µL/min/mg. In data set [3], this compound gave a half-life at 1 μM of 75.6 min and a microsomal CLint at 1 μM of 18.3 µL/min/mg. On 5-HT1A, the EC50 was above 3160 nM and the “5-HT1A % Act @ Max Dose” value came to 0.720%. Also, in data set [4], the “stability” value was “intermediate stability”, the half-life at 1 μM turned out to be 115 min and the “% Compound Remaining (after 120 min)” value is given as 46.1%. Besides, in data set [5], half-maximal inhibition (IC50) required 2040 nM and the “SERT % Inhibition @ Max Dose” value worked out at 88.15%.

For the origin of these results see US20240317683A1, “METHODS OF TREATING MOOD DISORDERS” (priority 2020, published 2024).
